{"source": "patent US10633417B2", "about": "(priority 2013, dated 2020)", "test_system": "Sprague-Dawley rats", "details": "rat, in vivo", "data": [{"compound": "CC(C)C[C@H](CN)CC(=O)O", "note": "[Pregabalin, pregabalin]", "values": [{"measurement": "activity on mechanical allodynia (von Frey), days 14 and 21", "value": "active"}]}, {"compound": "GCCSDPRCRYRCR [RgIA]", "values": [{"measurement": "OXA-induced pain threshold decrease (von Frey), day 7, 30 min", "value": "reverted"}]}]}
